In ChEMBL document CHEMBL3856221, “Structural modifications of the serotonin 5-HT7 receptor agonist N-(4-cyanophenylmethyl)-4-(2-biphenyl)-1-piperazinehexanamide (LP-211) to improve in vitro microsomal stability: A case study” (Eur J Med Chem, 2016):
Values belong to the compound of their own block, whether it stands above or below them. Activity calls are given as the source filed them. The calls are words filed in the database; no cut-off is given here.

What was measured:
[1] = Half life in ip dosed mouse; details: in vivo
[2] = Ratio of drug uptake in CD-1 mouse brain to plasma at 10 mg/kg, ip administered as single dose by LC/MS analysis; format: ADME, organism-based; details: read-out: BPR
[3] = Half life in mouse liver microsomes in presence of NADPH by liquid chromatographic method; format: ADME; details: microsomes
[4] = Stability in mouse liver microsomes assessed as oxidative metabolism by measuring drug recovery at 10 uM preincubated for 10 mins followed by NADPH addition measured after 30 mins by liquid chromatographic method; format: ADME
[5] = Cmax in CD-1 mouse plasma at 10 mg/kg, ip administered as single dose after 30 mins by LC/MS analysis; format: ADME, organism-based; design: dose 10 mg/kg, route intraperitoneal
[6] = Retention factor, logKw of compound in MeOH/0.01 M phosphate buffer at pH 7.4 by RP-HPLC method; format: physicochemical
[7] = Elimination half life in CD-1 mouse plasma at 10 mg/kg, ip administered as single dose by LC/MS analysis; format: ADME, organism-based; details: read-out: beta t1/2 (converted)
[8] = Drug uptake in CD-1 mouse plasma at 10 mg/kg, ip administered as single dose measured up to 4 hrs by LC/MS analysis; format: ADME, organism-based; details: in vivo
[9] = target: 5-hydroxytryptamine receptor 7 (Homo sapiens, UniProt P34969); test: Displacement of [3H]-5-CT from human 5-HT7b receptor expressed in HEK293 cell membranes after 1 hr by microbeta counting analysis
[10] = Displacement of [3H]-prazosin from adrenergic alpha 1 receptor in pig brain cortical membranes after 50 mins by microbeta counting analysis; format: ADME, cell membranes, Sus scrofa
[11] = target: T1, 5-hydroxytryptamine receptor 1A (Homo sapiens, UniProt P08908); test: Displacement of [3H]-8-OH-DPAT from human 5-HT1A receptor expressed in HEK293 cell membranes after 1 hr by microbeta counting analysis
T1 sequence (P08908 whole entry): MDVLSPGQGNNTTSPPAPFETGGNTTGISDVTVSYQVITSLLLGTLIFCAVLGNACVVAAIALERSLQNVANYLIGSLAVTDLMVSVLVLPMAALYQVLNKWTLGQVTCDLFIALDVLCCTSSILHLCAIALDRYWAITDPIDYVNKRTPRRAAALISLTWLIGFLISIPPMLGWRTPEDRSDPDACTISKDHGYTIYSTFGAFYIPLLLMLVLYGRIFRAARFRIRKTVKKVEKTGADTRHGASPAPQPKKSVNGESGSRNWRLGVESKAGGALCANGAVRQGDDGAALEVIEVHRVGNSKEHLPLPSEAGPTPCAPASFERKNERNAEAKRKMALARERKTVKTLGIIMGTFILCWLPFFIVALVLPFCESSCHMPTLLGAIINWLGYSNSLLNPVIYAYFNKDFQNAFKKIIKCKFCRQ

[12] = target: 5-hydroxytryptamine receptor 7 (Mus musculus) (UniProt P32304); test: Agonist activity at 5-HT7 receptor in embryonic day 15 C57BL/6 mouse striatum assessed as increase in neurite length at 20 nM after 30 mins by DAPI staining based microscopy relative to control
[13] = Cmax in CD-1 mouse brain at 10 mg/kg, ip administered as single dose after 30 mins by LC/MS analysis; format: ADME, organism-based; design: dose 10 mg/kg, route intraperitoneal
[14] = target: T2, 5-hydroxytryptamine receptor 6 (Homo sapiens, UniProt P50406); test: Displacement of [3H]-LSD from human 5-HT6 receptor expressed in HEK293 cell membranes after 1 hr by microbeta counting analysis
[15] = target: 5-hydroxytryptamine receptor 7 (Mus musculus) (UniProt P32304); test: Agonist activity at 5-HT7 receptor in embryonic day 15 C57BL/6 mouse cortex assessed as increase in neurite length at 20 nM up to 24 hrs by DAPI staining based microscopy; format: tissue-based
[16] = target: 5-hydroxytryptamine receptor 7 (Mus musculus) (UniProt P32304); test: Agonist activity at 5-HT7 receptor in embryonic day 15 C57BL/6 mouse cortex assessed as increase in neurite length at 20 nM after 30 mins by DAPI staining based microscopy relative to control; format: tissue-based
[17] = target: 5-hydroxytryptamine receptor 7 (Mus musculus) (UniProt P32304); test: Agonist activity at 5-HT7 receptor in embryonic day 15 C57BL/6 mouse striatum assessed as increase in neurite length at 20 nM up to 4 hrs by DAPI staining based microscopy relative to control
D(2) dopamine receptor [18] = target: T3, D(2) dopamine receptor (Homo sapiens, UniProt P14416); test: Displacement of [3H]raclopride from human dopamine D2L receptor expressed in HEK293 cell membranes after 1 hr by microbeta counting analysis; format: cell-based
[19] = Elimination half life in CD-1 mouse brain at 10 mg/kg, ip administered as single dose by LC/MS analysis; format: ADME, organism-based; details: read-out: beta t1/2 (converted)
D(2) dopamine receptor [20] = target: T3, D(2) dopamine receptor; test: Binding affinity to dopamine D2 receptor (unknown origin)
[21] = target: T2, 5-hydroxytryptamine receptor 6; test: Displacement of [3H]-LSD from human 5-HT6 receptor after […] by cell based assay

Chain of 5-hydroxytryptamine receptor 7 (Mus musculus) (P32304 whole entry): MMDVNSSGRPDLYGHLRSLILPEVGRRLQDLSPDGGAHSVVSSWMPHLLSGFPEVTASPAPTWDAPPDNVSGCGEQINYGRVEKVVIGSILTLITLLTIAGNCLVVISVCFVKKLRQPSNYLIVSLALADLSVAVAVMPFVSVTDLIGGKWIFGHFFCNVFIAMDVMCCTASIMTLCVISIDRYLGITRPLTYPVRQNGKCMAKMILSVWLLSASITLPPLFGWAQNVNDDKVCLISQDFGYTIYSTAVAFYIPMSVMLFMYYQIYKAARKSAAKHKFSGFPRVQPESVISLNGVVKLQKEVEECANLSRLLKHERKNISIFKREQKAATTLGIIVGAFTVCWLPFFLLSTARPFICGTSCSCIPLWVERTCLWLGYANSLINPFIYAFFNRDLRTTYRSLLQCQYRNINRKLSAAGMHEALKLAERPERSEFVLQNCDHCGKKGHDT
T2 sequence (P50406 whole entry): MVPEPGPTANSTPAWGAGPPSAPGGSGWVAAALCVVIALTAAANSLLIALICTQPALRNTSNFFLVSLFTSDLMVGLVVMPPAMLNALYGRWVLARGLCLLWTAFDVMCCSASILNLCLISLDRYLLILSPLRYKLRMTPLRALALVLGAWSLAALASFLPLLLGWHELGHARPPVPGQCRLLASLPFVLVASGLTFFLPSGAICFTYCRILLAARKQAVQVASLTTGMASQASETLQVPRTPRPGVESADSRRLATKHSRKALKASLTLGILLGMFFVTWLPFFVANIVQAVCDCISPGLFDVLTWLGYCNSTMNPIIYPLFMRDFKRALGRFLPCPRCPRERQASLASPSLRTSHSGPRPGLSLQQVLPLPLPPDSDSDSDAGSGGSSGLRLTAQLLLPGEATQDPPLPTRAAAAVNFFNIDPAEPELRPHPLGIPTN
T3 sequence (P14416 whole entry): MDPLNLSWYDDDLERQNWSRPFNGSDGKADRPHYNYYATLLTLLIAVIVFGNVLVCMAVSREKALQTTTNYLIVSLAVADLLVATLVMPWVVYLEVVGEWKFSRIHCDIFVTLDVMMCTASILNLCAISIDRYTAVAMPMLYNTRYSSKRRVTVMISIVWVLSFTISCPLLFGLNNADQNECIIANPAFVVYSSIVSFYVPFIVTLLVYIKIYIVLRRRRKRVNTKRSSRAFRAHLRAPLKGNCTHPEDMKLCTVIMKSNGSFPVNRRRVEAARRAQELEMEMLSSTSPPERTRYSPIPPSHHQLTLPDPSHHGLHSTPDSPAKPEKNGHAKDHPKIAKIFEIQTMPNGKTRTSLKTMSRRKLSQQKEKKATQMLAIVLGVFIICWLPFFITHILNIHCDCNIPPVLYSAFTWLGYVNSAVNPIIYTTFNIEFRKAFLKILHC
Chain of 5-hydroxytryptamine receptor 7 (P34969 whole entry): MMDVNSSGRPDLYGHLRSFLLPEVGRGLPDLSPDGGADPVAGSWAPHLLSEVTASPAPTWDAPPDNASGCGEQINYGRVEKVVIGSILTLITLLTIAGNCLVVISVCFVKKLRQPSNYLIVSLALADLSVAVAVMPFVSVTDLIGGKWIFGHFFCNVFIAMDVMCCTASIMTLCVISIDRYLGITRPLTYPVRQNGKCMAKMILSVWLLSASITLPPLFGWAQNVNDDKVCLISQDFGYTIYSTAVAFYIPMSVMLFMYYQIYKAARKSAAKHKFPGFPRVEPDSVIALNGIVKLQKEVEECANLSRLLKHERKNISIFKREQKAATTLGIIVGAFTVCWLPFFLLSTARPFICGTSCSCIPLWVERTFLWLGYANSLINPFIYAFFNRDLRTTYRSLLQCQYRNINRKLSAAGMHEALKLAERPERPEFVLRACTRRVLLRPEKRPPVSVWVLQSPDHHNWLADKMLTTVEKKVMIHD

half-life [1]: 4.4 h
SMILES: O=C1CCc2ccc(OCCCCN3CCN(c4cccc(Cl)c4Cl)CC3)cc2N1 [ARIPIPRAZOLE]

Kp [2]: 0.5
t1/2 [3]: 0.75 h
Drug recovery ([4]; microsomes, 0.5 h, 10 µM): 27%
Cmax [5]: 1170 ng/mL
logKw [6]: 0.52
half-life [7]: 1.07 h
Drug uptake [8]: Active
Ki [9]: 25.5 nM
Ki [10]: 6.6 nM
Ki [11]: 771 nM
Activity [12]: 124%
Cmax [13]: 515 ng/mL
Ki [14]: 614 nM
Activity [15]: Active
Activity [16]: 130%
Activity [17]: 126%
Ki (D(2) dopamine receptor [18]): 522 nM
half-life [19]: 1.02 h
SMILES: COc1ccc(-c2cc(F)ccc2N2CCN(CCCCCC(=O)NCc3ccc(C#N)cc3)CC2)cc1

remaining at 0.5 h, 10 µM ([4]; liver microsomes, read-out: Drug recovery): 20%
logKw [6]: 0.58
Ki (D(2) dopamine receptor [20]): 242 nM
Ki [21]: 1570 nM
SMILES: N#Cc1ccc(CNC(=O)CCCCCN2CCN(c3ccccc3-c3ccccc3)CC2)cc1
